From patent US11851440B2, “Modulators of eukaryotic initiation factor 2B, compositions and methods” (Denali Therapeutics Inc., priority 2017, dated 2023)

Each compound was assayed on ISR pathway (ATF4 translation) (assay: ATF4 Nano Luciferase reporter integrated stress response (ISR) assay in H4 ATF4-NLuc cells). Details: Homo sapiens, H4 ATF4-NLuc (clone 17) cells; compound 30 minutes, then 50 um sodium arsenite for 6 hours; luminescence readout.

IC50 [nM]	SMILES
38.2	O=C(COCCOC(F)(F)F)NC12CC(n3cnc(-c4ccc(Cl)c(F)c4)c3)(C1)C2 [Example 152]
2.6	O=C(CO[C@H]1C[C@@H](OC(F)(F)F)C1)NC12CC(n3cnc(-c4ccc(C(F)(F)F)cc4F)c3)(C1)C2 [Example 148]
14.9	O=C(COc1ccc(C(F)(F)F)cc1)NC12CC(c3nnc([C@H]4C[C@@H](OC(F)(F)F)C4)o3)(C1)C2 [Example 162, N-[1-[5-[3-cis-(trifluoromethoxy)cyclobutyl]-1,3,4-oxadiazol-2-yl]-3-bicyclo[1.1.1]pentanyl]-2-[4-(trifluoromethyl)phenoxy]acetamide]

Same assay, conditions: Homo sapiens, read-out: Activity (IC50), H4 ATF4-NLuc (clone 17) cells; compound 30 minutes, then 50 um sodium arsenite for 6 hours; luminescence readout

IC50 [nM]	SMILES
< 1000	O=C(CO[C@H]1C[C@@H](OC(F)(F)F)C1)NC12CC(NCCOc3ccc(Cl)c(F)c3)(C1)C2 [Example 246]
< 1000	O=C(CO[C@H]1C[C@@H](OC(F)(F)F)C1)NC12CC(c3ncc(-c4ccc(Cl)c(F)c4)o3)(C1)C2 [Example 227]
< 1000	O=C(COc1ccc(F)cc1)NC12CC(c3nnc([C@H]4C[C@H](OC(F)(F)F)C4)o3)(C1)C2 [Example 72, 2-(4-fluorophenoxy)-N-[3-[5-[3-trans-(trifluoromethoxy)cyclobutyl]-1,3,4-oxadiazol-2-yl]-1-bicyclo[1.1.1]pentanyl]acetamide]
< 1000	O=C(COc1ccc(Cl)c(F)c1)NC12CC(c3cn(C4CCC4)nn3)(C1)C2 (single isomer, unassigned) [Example 20, 2-(4-chloro-3-fluoro-phenoxy)-N-[1-(1-cyclobutyltriazol-4-yl)-3-bicyclo[1.1.1]pentanyl]acetamide]
< 1000	O=C(COc1ccc(Cl)c(F)c1)NC12CC(c3nnc(C4C[C@H]4COC(F)(F)F)o3)(C1)C2 (single isomer, unassigned) [Example 82, 2-(4-chloro-3-fluoro-phenoxy)-N-[3-[5-[2-trans-(trifluoromethoxymethyl)cyclopropyl]-1,3,4-oxadiazol-2-yl]-1-bicyclo[1.1.1]pentanyl]acetamide]
< 1000	COC(=O)c1cc(C(F)(F)F)ccc1-c1cn(C23CC(NC(=O)CO[C@H]4C[C@@H](OC(F)(F)F)C4)(C2)C3)cn1 [Example 273]
< 1000	O=C(CO[C@H]1C[C@@H](OC(F)(F)F)C1)NC12CC(c3cnn(-c4ccccc4)c3)(C1)C2 [Example 275]
< 1000	O=C(NC12CC(c3nnc([C@H]4C[C@@H](OC(F)(F)F)C4)o3)(C1)C2)c1cn(CCOC(F)(F)F)cn1 [Example 277]
< 1000	O=C(COc1ccc(Cl)c(F)c1)NC12CC(c3cnn(C4CCC4)n3)(C1)C2 (single isomer, unassigned) [Example 19, 2-(4-Chloro-3-fluoro-phenoxy)-N-[1-(2-cyclobutyltriazol-4-yl)-3-bicyclo[1.1.1]pentanyl]acetamide]
< 1000	O=C(CO[C@H]1C[C@@H](OC(F)(F)F)C1)NC12CC(n3cnc(-c4ccc(F)c(F)c4)c3)(C1)C2 [Example 138]
< 1000	O=C(COc1ccc(Cl)c(F)c1)NC12CC(c3nnc(CO[C@H]4C[C@@H](OC(F)(F)F)C4)o3)(C1)C2 [Example 53]
< 1000	O=C(COCCOC(F)(F)F)NC12CC(n3cnc(-c4ccc(Cl)c(F)c4)c3)(C1)C2 [Example 152]
1000 to 10000	O=C(COCc1cncc(Cl)c1)NC12CC(c3nnc([C@H]4C[C@@H](OC(F)(F)F)C4)o3)(C1)C2 [Example 97, 2-[(5-chloro-3-pyridyl)methoxy]-N-[3-[5-[3-cis-(trifluoromethoxy)cyclobutyl]-1,3,4-oxadiazol-2-yl]-1-bicyclo[1.1.1]pentanyl]acetamide]
1000 to 10000	O=C(COc1ccc(Cl)c(F)c1)NC12CC(c3nnc([C@H]4C[C@H]4C(F)F)o3)(C1)C2 (single isomer, unassigned) [Example 85, 2-(4-chloro-3-fluoro-phenoxy)-N-[3-[5-[2-cis-(difluoromethyl)cyclopropyl]-1,3,4-oxadiazol-2-yl]-1-bicyclo[1.1.1]pentanyl]acetamide]
< 1000	O=C(NC12CC(n3cnc(-c4ccc(F)c(F)c4)c3)(C1)C2)[C@H]1C[C@H](OCCOC(F)(F)F)C1 [Example 249]
< 1000	O=C(CO[C@H]1C[C@@H](OC(F)(F)F)C1)NC12CC(n3cnc(-c4ccc(C(F)(F)F)cc4)c3)(C1)C2 [Example 150]
< 1000	O=C(COc1ccc(Cl)cc1)NC12CC(n3cnc([C@H]4C[C@@H](OC(F)(F)F)C4)c3)(C1)C2 [Example 68, 2-(4-chlorophenoxy)-N-[3-[4-[3-cis-(trifluoromethoxy)cyclobutyl]imidazol-1-yl]-1-bicyclo[1.1.1]pentanyl]acetamide]
< 1000	O=C(CO[C@H]1C[C@@H](OC(F)(F)F)C1)NC12CC(n3cnc(-c4ccc(C(F)(F)F)cc4F)c3)(C1)C2 [Example 148]
< 1000	O=C(CO[C@H]1C[C@@H](OC(F)(F)F)C1)NC12CC(c3nc(-c4ccc(Cl)c(F)c4)no3)(C1)C2 [Example 201]
< 1000	O=C(COc1ccc(Cl)cc1)NC12CC(c3nnc([C@H]4C[C@@H](COC(F)(F)F)C4)o3)(C1)C2 [Example 86, 2-(4-chlorophenoxy)-N-[3-[5-[3-cis-(trifluoromethoxymethyl)cyclobutyl]-1,3,4-oxadiazol-2-yl]-1-bicyclo[1.1.1]pentanyl]acetamide]
< 1000	CC(c1nnc(C23CC(NC(=O)COc4ccc(Cl)c(F)c4)(C2)C3)o1)C1CC1 (stereo not shown) [Example 8, 2-(4-chloro-3-fluoro-phenoxy)-N-[1-[5-(1-cyclopropylethyl)-1,3,4-oxadiazol-2-yl]-3-bicyclo[1.1.1]pentanyl]acetamide]
< 1000	O=C(NC12CC(c3nnc([C@H]4C[C@@H](OC(F)(F)F)C4)o3)(C1)C2)c1ccc2cc(Cl)c(F)cc2n1 [Example 196]
< 1000	O=C(NC12CC(c3nnc([C@H]4C[C@@H](OC(F)(F)F)C4)o3)(C1)C2)c1ccn(CCOC(F)(F)F)n1 [Example 225]
< 1000	O=C(COc1ccc(Cl)c(F)c1)NC12CC(n3cnc(C4CCC4)c3)(C1)C2 [Example 39, 2-(4-chloro-3-fluoro-phenoxy)-N-[3-(4-cyclobutylimidazol-1-yl)-1-bicyclo[1.1.1]pentanyl]acetamide]
< 1000	O=C(COc1ccc(Cl)c(F)c1)NC12CC(n3cnc(C4CN(CC(F)(F)F)C4)c3)(C1)C2 [Example 67, 2-(4-chloro-3-fluoro-phenoxy)-N-[3-[4-[1-(2,2,2-trifluoroethyl)azetidin-3-yl]imidazol-1-yl]-1-bicyclo[1.1.1]pentanyl]acetamide]
< 1000	O=C(COc1ccc(C(F)(F)F)cc1)NC12CC(c3nnc([C@H]4C[C@@H](OC(F)(F)F)C4)o3)(C1)C2 [Example 162, N-[1-[5-[3-cis-(trifluoromethoxy)cyclobutyl]-1,3,4-oxadiazol-2-yl]-3-bicyclo[1.1.1]pentanyl]-2-[4-(trifluoromethyl)phenoxy]acetamide]
< 1000	O=C(COc1ccc(Cl)c(F)c1)NC12CC(c3ncc(C4CCC4)o3)(C1)C2 [Example 47]
1000 to 10000	O=C(COCCOC(F)(F)F)NC12CC(c3nnc([C@H]4C[C@@H](OC(F)(F)F)C4)o3)(C1)C2 [Example 94, N-[3-[5-[3-cis-(trifluoromethoxy)cyclobutyl]-1,3,4-oxadiazol-2-yl]-1-bicyclo[1.1.1]pentanyl]-2-[2-(trifluoromethoxy)ethoxy]acetamide]
1000 to 10000	O=C(COc1ccc(Cl)c(F)c1)NC12CC(N3CCN(CC4CCC4)C3=O)(C1)C2 [Example 215]
< 1000	O=C(NC12CC(c3nnc([C@H]4C[C@@H](OC(F)(F)F)C4)o3)(C1)C2)c1cn2cc(C(F)(F)F)ccc2n1 [Example 186]

SMILES	IC50 [nM]
O=C(CO[C@H]1C[C@@H](OC(F)(F)F)C1)NC12CC(c3nnc(-c4ccn(CC(F)(F)F)n4)o3)(C1)C2 [Example 119, N-[3-[5-[1-(2,2,2-trifluoroethyl)pyrazol-3-yl]-1,3,4-oxadiazol-2-yl]-1-bicyclo[1.1.1]pentanyl]-2-[3-cis-(trifluoromethoxy)cyclobutoxy]acetamide]	1000 to 10000
